Experimental data as given in ChEMBL document CHEMBL1201862, “PubChem BioAssay data set” (2004).
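Test compounds were applied to cells in 96-well plates for 48 hours at 5 doses. GI50 = concentration required for 50% inhibition of growth.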 Activity calls are given as the source filed them. Rule as the data show it: active = GI50 up to about 1.1 µM and inactive = higher.

Legend:
Assay in all cases: NCI anticancer screen, dose series, 48 h
A549 = system: A549
BT-549 = system: BT-549
CAKI-1 = system: CAKI-1
HCC 2998 = system: HCC 2998
HCT-116 = system: HCT-116
HCT-15 = system: HCT-15
HOP-92 = system: HOP-92
KM12 = system: KM12
MDA-MB-435 = system: MDA-MB-435
MDA-N = system: MDA-N
NCI-H23 = system: NCI-H23
NCI-H460 = system: NCI-H460
NCI/ADR-RES = system: NCI/ADR-RES
PC-3 = system: PC-3
RXF 393 = system: RXF 393
SK-MEL-28 = system: SK-MEL-28
SK-MEL-2 = system: SK-MEL-2
T47D = system: T47D
U-251 = system: U-251
M19-MEL = system: M19-MEL

Structure (SMILES): Nc1nc(Cl)cc(NCC2(CO)CC(O)C2)n1 (stereo unspecified)
- GI50 (A549): > 100 µM (inactive)
- GI50 (BT-549): > 100 µM (inactive)
- GI50 (CAKI-1): > 100 µM (inactive)
- GI50 (HCC 2998): > 100 µM (inactive)
- GI50 (HCT-116): > 100 µM (inactive)
- GI50 (HCT-15): > 100 µM
- GI50 (HOP-92): > 100 µM (inactive)
- GI50 (KM12): > 100 µM (inactive)
- GI50 (MDA-MB-435): > 100 µM (inactive)
- GI50 (MDA-N): > 100 µM (inactive)
- GI50 (NCI-H23): > 100 µM (inactive)
- GI50 (NCI-H460): > 100 µM (inactive)
- GI50 (NCI/ADR-RES): > 100 µM (inactive)
- GI50 (PC-3): > 100 µM (inactive)
- GI50 (RXF 393): > 100 µM (inactive)
- GI50 (SK-MEL-28): > 100 µM (inactive)
- GI50 (SK-MEL-2): > 100 µM (inactive)
- GI50 (T47D): > 100 µM (inactive)
- GI50 (U-251): > 100 µM (inactive)

Structure (SMILES): CCCCCCCC/C=C\CCCCCCCC(=O)NCCN(CCN)C(=O)CCCCCCC/C=C\CCCCCCCC
- GI50 (A549): > 100 µM (inactive)
- GI50 (CAKI-1): 51.5 µM (inactive)
- GI50 (HCC 2998): > 100 µM (inactive)
- GI50 (HCT-116): > 100 µM (inactive)
- GI50 (HCT-15): > 100 µM
- GI50 (HOP-92): > 100 µM (inactive)
- GI50 (M19-MEL): > 100 µM (inactive)
- GI50 (NCI-H23): > 100 µM (inactive)
- GI50 (NCI-H460): > 100 µM (inactive)
- GI50 (SK-MEL-28): > 100 µM (inactive)
- GI50 (U-251): > 100 µM (inactive)

Structure (SMILES): COC(=O)C1=C(C)NC(C)=C([N+](=O)[O-])C1c1cccc(N=O)c1 (stereo unspecified)
- GI50 (A549): 18.9 µM (inactive)
- GI50 (BT-549): 16.7 µM (inactive)
- GI50 (CAKI-1): 7.96 µM (inactive)
- GI50 (HCC 2998): 18.9 µM (inactive)
- GI50 (HCT-116): 10.8 µM (inactive)
- GI50 (HCT-15): 14.2 µM
- GI50 (HOP-92): 2.83 µM (inactive)
- GI50 (KM12): 13.6 µM (inactive)
- GI50 (MDA-MB-435): 12.7 µM (inactive)
- GI50 (MDA-N): 10 µM (inactive)
- GI50 (NCI-H23): 18.5 µM (inactive)
- GI50 (NCI-H460): 16.5 µM (inactive)
- GI50 (NCI/ADR-RES): 21 µM (inactive)
- GI50 (PC-3): 17.9 µM (inactive)
- GI50 (RXF 393): 13.8 µM (inactive)
- GI50 (SK-MEL-28): 17.9 µM (inactive)
- GI50 (SK-MEL-2): 18.2 µM (inactive)
- GI50 (T47D): 12.1 µM (inactive)
- GI50 (U-251): 18 µM (inactive)

Structure (SMILES): CCOC(=O)C(NC(=O)CC)(Nc1ccc(S(=O)(=O)Nc2onc(C)c2C)cc1)C(F)(F)F (stereo unspecified)
- GI50 (A549): > 100 µM (inactive)
- GI50 (BT-549): > 100 µM (inactive)
- GI50 (CAKI-1): > 100 µM (inactive)
- GI50 (HCC 2998): > 100 µM (inactive)
- GI50 (HCT-116): > 100 µM (inactive)
- GI50 (HCT-15): > 100 µM
- GI50 (HOP-92): > 100 µM (inactive)
- GI50 (KM12): > 100 µM (inactive)
- GI50 (MDA-MB-435): > 100 µM (inactive)
- GI50 (MDA-N): > 100 µM (inactive)
- GI50 (NCI-H23): > 100 µM (inactive)
- GI50 (NCI-H460): > 100 µM (inactive)
- GI50 (NCI/ADR-RES): > 100 µM (inactive)
- GI50 (PC-3): > 100 µM (inactive)
- GI50 (RXF 393): > 100 µM (inactive)
- GI50 (SK-MEL-28): > 100 µM (inactive)
- GI50 (SK-MEL-2): > 100 µM (inactive)
- GI50 (T47D): > 100 µM (inactive)
- GI50 (U-251): > 100 µM (inactive)

Structure (SMILES): c1ccc2c3c(c(N4CCOCC4)nc2c1)CCCC3
- GI50 (A549): 43.1 µM (inactive)
- GI50 (BT-549): 39.7 µM (inactive)
- GI50 (CAKI-1): 64.7 µM (inactive)
- GI50 (HCC 2998): 32.4 µM (inactive)
- GI50 (HCT-116): 40.6 µM (inactive)
- GI50 (HCT-15): 35.3 µM
- GI50 (HOP-92): 67.1 µM (inactive)
- GI50 (KM12): 38.2 µM (inactive)
- GI50 (MDA-MB-435): 48.6 µM (inactive)
- GI50 (MDA-N): 50.4 µM (inactive)
- GI50 (NCI-H23): 56.5 µM (inactive)
- GI50 (NCI-H460): 34.7 µM (inactive)
- GI50 (NCI/ADR-RES): 29.9 µM (inactive)
- GI50 (PC-3): 36.6 µM (inactive)
- GI50 (RXF 393): 19.8 µM (inactive)
- GI50 (SK-MEL-28): 85.1 µM (inactive)
- GI50 (SK-MEL-2): 42.8 µM (inactive)
- GI50 (T47D): 16 µM (inactive)
- GI50 (U-251): 36.6 µM (inactive)

Structure (SMILES): COC(=O)CC(C(C(=O)OCc1ccccc1)C(C)O)N1C(=O)OC(c2ccccc2)C1c1ccccc1 (stereo unspecified)
- GI50 (A549): 95.5 µM (inactive)
- GI50 (HCC 2998): > 100 µM (inactive)
- GI50 (HCT-116): > 100 µM (inactive)
- GI50 (HCT-15): > 100 µM
- GI50 (M19-MEL): > 100 µM (inactive)
- GI50 (NCI-H23): > 100 µM (inactive)
- GI50 (NCI-H460): > 100 µM (inactive)
- GI50 (RXF 393): > 100 µM (inactive)
- GI50 (SK-MEL-28): > 100 µM (inactive)
- GI50 (SK-MEL-2): > 100 µM (inactive)
- GI50 (U-251): > 100 µM (inactive)

Structure (SMILES): C[n+]1c(-c2ccc(/C=C/C=N\NC(=O)c3ccc(C(=O)N/N=C\C=C\c4ccc(-c5cn6ccccc6[n+]5C)cc4)cc3)cc2)cn2ccccc21
- GI50 (A549): 74.1 µM (inactive)
- GI50 (BT-549): 38.2 µM (inactive)
- GI50 (CAKI-1): 38.7 µM (inactive)
- GI50 (HCC 2998): > 54.7 µM (inactive)
- GI50 (HCT-116): > 100 µM (inactive)
- GI50 (HCT-15): > 100 µM
- GI50 (HOP-92): > 100 µM (inactive)
- GI50 (KM12): 39.1 µM (inactive)
- GI50 (MDA-MB-435): > 100 µM (inactive)
- GI50 (MDA-N): > 100 µM (inactive)
- GI50 (NCI-H23): 71.4 µM (inactive)
- GI50 (NCI-H460): > 100 µM (inactive)
- GI50 (NCI/ADR-RES): > 100 µM (inactive)
- GI50 (PC-3): > 100 µM (inactive)
- GI50 (RXF 393): > 96.2 µM (inactive)
- GI50 (SK-MEL-28): > 100 µM (inactive)
- GI50 (SK-MEL-2): > 100 µM (inactive)
- GI50 (T47D): > 48.1 µM (inactive)
- GI50 (U-251): 44.7 µM (inactive)

Structure (SMILES): O=C(O)c1c(CC(Cc2ccccc2)C(=O)O)ccc2c1CCC2 (stereo unspecified)
- GI50 (A549): > 100 µM (inactive)
- GI50 (BT-549): > 100 µM (inactive)
- GI50 (CAKI-1): > 100 µM (inactive)
- GI50 (HCC 2998): > 100 µM (inactive)
- GI50 (HCT-116): > 100 µM (inactive)
- GI50 (HCT-15): > 100 µM
- GI50 (HOP-92): > 100 µM (inactive)
- GI50 (KM12): > 100 µM (inactive)
- GI50 (MDA-MB-435): > 100 µM (inactive)
- GI50 (MDA-N): > 100 µM (inactive)
- GI50 (NCI-H23): > 100 µM (inactive)
- GI50 (NCI-H460): > 100 µM (inactive)
- GI50 (NCI/ADR-RES): > 100 µM (inactive)
- GI50 (PC-3): > 100 µM (inactive)
- GI50 (RXF 393): > 100 µM (inactive)
- GI50 (SK-MEL-28): > 100 µM (inactive)
- GI50 (SK-MEL-2): > 100 µM (inactive)
- GI50 (T47D): 66.5 µM (inactive)
- GI50 (U-251): > 100 µM (inactive)
